# Values joined by “and” are separate entries in the source; they are usually repeats but may differ in a detail not shown here. Identical values can stand only once.
# How the values were obtained:
# Details in all cases: average where tested multiple times
# BCAT2 [1] = biological target: T1, BCAT2 (Homo sapiens, UniProt O15382); assay: BCAT2 in vitro cell inhibition using engineered A549 cells (KMV cell assay, 13C6-KMV by LC-MS/MS); format: cell-based; parameters: The result was an engineered A549 cell line that expressed endogenous BCAT2; endogenous in cells; host or cells: A549 cells with MUT and BCAT1 knocked out by CRISPR/CAS9; key to BCAT2 Cell Inhibition: A: less than or equal to 0.100 μM; B: greater than 0.100 and less than or equal to 0.500 μM; C: greater than 0.500 and less than or equal to 1.000 μM; d: greater than 1.000 μM; E: no fit
# T1 sequence (O15382 28-392): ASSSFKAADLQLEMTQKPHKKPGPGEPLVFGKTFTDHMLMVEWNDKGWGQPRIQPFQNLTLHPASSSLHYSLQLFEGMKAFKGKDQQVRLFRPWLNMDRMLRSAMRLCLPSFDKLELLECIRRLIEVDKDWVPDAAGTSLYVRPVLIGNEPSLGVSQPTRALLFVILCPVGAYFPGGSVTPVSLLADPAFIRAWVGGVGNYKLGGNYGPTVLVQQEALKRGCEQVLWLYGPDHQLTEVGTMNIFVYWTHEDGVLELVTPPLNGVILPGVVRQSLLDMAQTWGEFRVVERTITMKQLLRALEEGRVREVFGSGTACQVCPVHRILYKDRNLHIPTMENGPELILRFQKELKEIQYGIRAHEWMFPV
# BCAT2 [2] = biological target: T1, BCAT2; assay: BCAT2 in vitro enzyme inhibition assay (resazurin/diaphorase-coupled fluorescence); format: biochemical
# Procedure, shortened: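 Coupled fluorescence readout: glutamate formed from L-leucine/α-ketoglutarate transamination drives GDH/NAD/diaphorase reduction of resazurin (Ex 540/Em 590). Human BCAT2 was first exposed 1 h at room temperature to compound, top final 100 μM in 3-fold, 10-point series; substrate reaction ran 1 h before SDS quench, in technical duplicate with DMSO max and enzyme-free min controls.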
# hBCAT1 = biological target: T2, hBCAT1 (Homo sapiens, UniProt P54687); assay: BCAT1 in vitro enzyme inhibition assay (resazurin/diaphorase-coupled fluorescence); format: biochemical
# T2 sequence (P54687 1-386): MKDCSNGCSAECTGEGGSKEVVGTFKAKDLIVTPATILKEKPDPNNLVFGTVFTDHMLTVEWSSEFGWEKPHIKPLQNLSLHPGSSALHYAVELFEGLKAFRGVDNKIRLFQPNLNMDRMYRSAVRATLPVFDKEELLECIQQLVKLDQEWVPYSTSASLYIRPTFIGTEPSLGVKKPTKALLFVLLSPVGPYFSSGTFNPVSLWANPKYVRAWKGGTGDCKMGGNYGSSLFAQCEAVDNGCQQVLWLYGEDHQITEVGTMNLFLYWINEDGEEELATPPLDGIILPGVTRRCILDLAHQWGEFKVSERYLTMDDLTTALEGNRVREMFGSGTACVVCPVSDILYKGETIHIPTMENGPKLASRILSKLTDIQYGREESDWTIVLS
# Procedure, shortened: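 Human BCAT1 activity read by resazurin/diaphorase-coupled fluorescence. Compounds added from 50× DMSO stocks at 1:50, giving 10-point 3-fold titrations from 100 μM top final concentration. Run in technical duplicate; repeat tests averaged.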
IC50 (BCAT2 [1]),IC50 (BCAT2 [2]) [nM],IC50 (hBCAT1) [nM],BCAT2 Cell Inhibition (BCAT2 [1]),Structure (SMILES)
> 1000 nM,100 to 500,> 5000,,"Cn1ccc(-c2nc3cnc(-n4nccn4)cc3n2[C@@H]2CCC[C@H](NC(=O)c3ncc(C(F)F)s3)C2)n1 [Example 41, 5-(difluoromethyl)-N-((1S,3R)-3-(2-(1-methyl-1H-pyrazol-3-yl)-6-(2H-1,2,3-triazol-2-yl)-1H-imidazo[4,5-c]pyridin-1-yl)cyclohexyl)thiazole-2-carboxamide]"
500 to 1000 nM and 100 to 500 nM,≤ 100,> 5000,,"Cn1nccc1-c1nc2cnc(-n3nccn3)cc2n1[C@@H]1CCC[C@H](NC(=O)c2ncc(C(F)F)s2)C1 [Example 43, 5-(difluoromethyl)-N-((1S,3R)-3-(2-(1-methyl-1H-pyrazol-5-yl)-6-(2H-1,2,3-triazol-2-yl)-1H-imidazo[4,5-c]pyridin-1-yl)cyclohexyl)thiazole-2-carboxamide]"
,> 1000,> 5000,E,"Cn1nccc1-c1nc2cnc(-n3ccnn3)cc2n1[C@@H]1CCC[C@H](NC(=O)c2ncc(C(F)F)s2)C1 [Example 44, 5-(difluoromethyl)-N-((1S,3R)-3-(2-(1-methyl-1H-pyrazol-5-yl)-6-(1H-1,2,3-triazol-1-yl)-1H-imidazo[4,5-c]pyridin-1-yl)cyclohexyl)thiazole-2-carboxamide]"
,> 1000,> 5000,E,"Cn1cc(-c2nc3cnc(-n4nccn4)cc3n2[C@@H]2CCC[C@H](NC(=O)c3ncc(C(F)F)s3)C2)cn1 [Example 45, 5-(difluoromethyl)-N-((1S,3R)-3-(2-(1-methyl-1H-pyrazol-4-yl)-6-(2H-1,2,3-triazol-2-yl)-1H-imidazo[4,5-c]pyridin-1-yl)cyclohexyl)thiazole-2-carboxamide]"
,> 1000,> 5000,E,"Cn1cc(-c2nc3cnc(-n4ccnn4)cc3n2[C@@H]2CCC[C@H](NC(=O)c3ncc(C(F)F)s3)C2)cn1 [Example 46, 5-(difluoromethyl)-N-((1S,3R)-3-(2-(1-methyl-1H-pyrazol-4-yl)-6-(1H-1,2,3-triazol-1-yl)-1H-imidazo[4,5-c]pyridin-1-yl)cyclohexyl)thiazole-2-carboxamide]"
,500 to 1000,> 5000,E,"Cc1noc(C)c1-c1nc2cnc(-n3nccn3)cc2n1[C@@H]1CCC[C@H](NC(=O)c2ncc(C(F)F)s2)C1 [Example 47, 5-(difluoromethyl)-N-((1S,3R)-3-(2-(3,5-dimethylisoxazol-4-yl)-6-(2H-1,2,3-triazol-2-yl)-1H-imidazo[4,5-c]pyridin-1-yl)cyclohexyl)thiazole-2-carboxamide]"
,> 1000,> 5000,E,"Cc1noc(C)c1-c1nc2cnc(-n3ccnn3)cc2n1[C@@H]1CCC[C@H](NC(=O)c2ncc(C(F)F)s2)C1 [Example 48, 5-(difluoromethyl)-N-((1S,3R)-3-(2-(3,5-dimethylisoxazol-4-yl)-6-(1H-1,2,3-triazol-1-yl)-1H-imidazo[4,5-c]pyridin-1-yl)cyclohexyl)thiazole-2-carboxamide]"
,100 to 500,> 5000,E,"O=C(N[C@H]1CCC[C@@H](n2c(-c3ncccc3F)nc3cnc(N4CCCC4=O)cc32)C1)c1ncc(C(F)F)s1 [Example 49, 5-(difluoromethyl)-N-((1S,3R)-3-(2-(3-fluoropyridin-2-yl)-6-(2-oxopyrrolidin-1-yl)-1H-imidazo[4,5-c]pyridin-1-yl)cyclohexyl)thiazole-2-carboxamide]"
,≤ 100,< 500,E,"O=C(N[C@H]1CCC[C@@H](n2c(-c3ccccn3)nc3cnc(-c4nn[nH]n4)cc32)C1)c1ncc(C(F)F)s1 [Example 50, 5-(difluoromethyl)-N-((1S,3R)-3-(2-(pyridin-2-yl)-6-(2H-tetrazol-5-yl)-1H-imidazo[4,5-c]pyridin-1-yl)cyclohexyl)thiazole-2-carboxamide]"
,> 1000,> 5000,E,"Cc1nc2cnc(-n3ccnn3)cc2n1[C@@H]1CCC[C@H](NC(=O)c2ccc(Br)s2)C1 [Example 52, 5-bromo-N-((1S,3R)-3-(2-methyl-6-(1H-1,2,3-triazol-1-yl)-1H-imidazo[4,5-c]pyridin-1-yl)cyclohexyl)thiophene-2-carboxamide]"
≤ 100 nM,≤ 100,< 500,,"O=C(N[C@H]1CCC[C@@H](n2c(-c3ccccn3)nc3cnc(-c4nc[nH]n4)cc32)C1)c1ncc(C(F)F)s1 [Example 53, 5-(difluoromethyl)-N-((1S,3R)-3-(2-(pyridin-2-yl)-6-(1H-1,2,4-triazol-3-yl)-1H-imidazo[4,5-c]pyridin-1-yl)cyclohexyl)thiazole-2-carboxamide]"
≤ 100 nM,≤ 100,< 500,,"O=C(N[C@H]1CCC[C@@H](n2c(-c3ncccc3F)nc3cnc(-c4cc[nH]n4)cc32)C1)c1ncc(C(F)F)s1 [Example 55, 5-(difluoromethyl)-N-((1S,3R)-3-(2-(3-fluoropyridin-2-yl)-6-(1H-pyrazol-3-yl)-1H-imidazo[4,5-c]pyridin-1-yl)cyclohexyl)thiazole-2-carboxamide]"
100 to 500 nM,≤ 100,1000 to 5000,,"O=C(N[C@H]1CCC[C@@H](n2c(-n3cccn3)nc3cnc(-n4nccn4)cc32)C1)c1ncc(C(F)F)s1 [Example 56, N-((1S,3R)-3-(2-(1H-pyrazol-1-yl)-6-(2H-1,2,3-triazol-2-yl)-1H-imidazo[4,5-c]pyridin-1-yl)cyclohexyl)-5-(difluoromethyl)thiazole-2-carboxamide]"
100 to 500 nM,≤ 100,1000 to 5000,,"O=C(N[C@H]1CCC[C@@H](n2c(-c3ncccc3F)nc3cnc(-n4nccn4)nc32)C1)c1ncc(C(F)F)s1 [Example 58, 5-(difluoromethyl)-N-((1S,3R)-3-(8-(3-fluoropyridin-2-yl)-2-(2H-1,2,3-triazol-2-yl)-9H-purin-9-yl)cyclohexyl)thiazole-2-carboxamide]"
> 1000 nM,100 to 500,> 5000,,"O=C(N[C@H]1CCC[C@@H](n2c(-c3ncccc3F)nc3cnc(-n4ccnn4)nc32)C1)c1ncc(C(F)F)s1 [Example 59, 5-(difluoromethyl)-N-((1S,3R)-3-(8-(3-fluoropyridin-2-yl)-2-(1H-1,2,3-triazol-1-yl)-9H-purin-9-yl)cyclohexyl)thiazole-2-carboxamide]"
100 to 500 nM,≤ 100,500 to 1000,,"Cc1cccnc1-c1nc2cnc(-n3nccn3)cc2n1[C@@H]1CCC[C@H](NC(=O)c2ncc(C(F)F)s2)C1 [Example 60, 5-(difluoromethyl)-N-((1S,3R)-3-(2-(3-methylpyridin-2-yl)-6-(2H-1,2,3-triazol-2-yl)-1H-imidazo[4,5-c]pyridin-1-yl)cyclohexyl)thiazole-2-carboxamide]"
≤ 100 nM,≤ 100,< 500,,"C#Cc1cnc(C(=O)N[C@H]2CCC[C@@H](n3c(-c4ncccc4C)nc4cnc(-n5nccn5)cc43)C2)s1 [Example 61, 5-ethynyl-N-((1S,3R)-3-(2-(3-methylpyridin-2-yl)-6-(2H-1,2,3-triazol-2-yl)-1H-imidazo[4,5-c]pyridin-1-yl)cyclohexyl)thiazole-2-carboxamide]"
≤ 100 nM,≤ 100,500 to 1000,,"O=C(N[C@H]1CCC[C@@H](n2c(-c3ccccc3F)nc3cnc(-n4nccn4)nc32)C1)c1ncc(C(F)F)s1 [Example 62, 5-(difluoromethyl)-N-((1S,3R)-3-(8-(2-fluorophenyl)-2-(2H-1,2,3-triazol-2-yl)-9H-purin-9-yl)cyclohexyl)thiazole-2-carboxamide]"

# Reference: patent publication US20260159512A1, “BCAT2 INHIBITORS” (AGIOS PHARMACEUTICALS, INC., priority 2021, published 2026)
